The record followed here is publication PMC6628648, “Enabling microbial syringol conversion through structure-guided protein engineering” (Proceedings of the National Academy of Sciences of the …, 2019).

As usually defined, the Km is the concentration of substrate that gives half-maximal velocity. The kcat is the number of substrate molecules converted per active site and unit of time at saturation.

Assay [1] has as its target T1, WT GcoA (Amycolatopsis sp., UniProt P0DPQ7).
T1 construct: GST (N, cleaved yes); made in house; host or cells: E. coli Rosetta 2 (DE3)
T1 sequence (P0DPQ7 1-407): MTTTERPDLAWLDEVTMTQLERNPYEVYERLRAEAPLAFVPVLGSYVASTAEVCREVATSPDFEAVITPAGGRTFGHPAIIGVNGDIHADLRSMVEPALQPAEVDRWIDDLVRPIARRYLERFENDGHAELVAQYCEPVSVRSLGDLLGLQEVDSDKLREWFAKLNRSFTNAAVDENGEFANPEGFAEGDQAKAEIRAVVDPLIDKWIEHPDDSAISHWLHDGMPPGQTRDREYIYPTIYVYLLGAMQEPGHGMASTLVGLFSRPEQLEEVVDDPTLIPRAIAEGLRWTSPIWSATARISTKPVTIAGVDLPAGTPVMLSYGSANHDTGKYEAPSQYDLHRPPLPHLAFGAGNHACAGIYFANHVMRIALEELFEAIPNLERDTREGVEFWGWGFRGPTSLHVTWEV
The experiment in a line: NADH consumption assay (steady-state kinetics, specific activity) with GcoB. It counts as biochemical, Amycolatopsis sp. ATCC 39116. The conditions noted are these: for Specific activity: WT, NADH consumption, saturating (200 µM) substrate, pH 7.5, 25°C.

Assay [2] concerns the target GcoA-F169A (Amycolatopsis sp., UniProt P0DPQ7, F169A). In words: Discontinuous HPLC specific activity (aromatic substrate disappearance). It counts as biochemical, Amycolatopsis sp. ATCC 39116. Further details: GST (N, cleaved yes); made in house; host or cells: E. coli Rosetta 2 (DE3). As to conditions: 300 μM substrate, 300 μM NADH, 0.2 μM F169A/GcoB. The method, then:
HPLC was used to verify the O-demethylated product of GcoA-F169A GcoA/GcoB with guaiacol, syringol, or 3MC. In addition, discontinuous HPLC was used to determine the specific activity of aromatic product disappearance. Details are provided in SI Appendix. […]
vi = Vmax[S]/(KM + [S]) (4)
Determination of substrate dissociation constants (KD) with F169A. 0-60 µM of guaiacol, syringol, or 3MC in 0.5 or 1 µM aliquots, were titrated into a cuvette containing 3 µM F169A GcoA in 25 mM HEPES, 50 mM NaCl, pH 7.5. The spectrum after each substrate addition was recorded, beginning with no substrate bound. The solution reached equilibrium before the next addition. A difference spectrum was made to illustrate the shift from a low-spin aquo-heme complex to the high-spin substrate-bound complex (spectral […]
shift from 417 nm to 388 nm). […] The absorbance […]
at 388 nm (Abs388-417 nm) was plotted as a function of [substrate], yielding a quadratic curve that was fit to equation (5) to determine […]
Formaldehyde determination. A colorimetric assay using tryptophan can be used to quantify the amount of formaldehyde produced in F169 GcoA/B reactions with guaiacol, syringol, or 3MC. […] 200 μM NADH was added and the background rate recorded. 100 (guaiacol, syringol, or 3MC) or 200 (syringol) μM of substrate was then added and the reaction monitored until there was no more change, due to either substrate, NADH or O2 depletion, whichever occurred first. […] After cooling, the absorbance was read at 575 nm and the [formaldehyde] calculated by using ε575 nm = 4.2 mM-1 cm-1, obtained with formaldehyde as a standard (1). […]
HPLC for product identification and specific activity measurement. […] Integrated intensities vs [standards] were plotted and the resulting standard curves used to quantify the reactants and products.
For specific activity determination, 300 μM guaiacol, syringol, or 3MC were added from 0.1 M DMSO stocks to air saturated buffer (25 mM HEPES, 50 mM NaCl, pH 7.5), with a final volume of 1 mL. The [analyte] was measured via the above HPLC method. […]

[3] abbreviates: WT GcoA, apparent, 0.2 µM GcoAB, 300 µM NADH, 210 µM O2, 0–300 µM substrate, pH 7.5, 25 °C.

Molecules are shown by their SMILES.

Sequence of GcoA-F169A (P0DPQ7 whole entry F169A): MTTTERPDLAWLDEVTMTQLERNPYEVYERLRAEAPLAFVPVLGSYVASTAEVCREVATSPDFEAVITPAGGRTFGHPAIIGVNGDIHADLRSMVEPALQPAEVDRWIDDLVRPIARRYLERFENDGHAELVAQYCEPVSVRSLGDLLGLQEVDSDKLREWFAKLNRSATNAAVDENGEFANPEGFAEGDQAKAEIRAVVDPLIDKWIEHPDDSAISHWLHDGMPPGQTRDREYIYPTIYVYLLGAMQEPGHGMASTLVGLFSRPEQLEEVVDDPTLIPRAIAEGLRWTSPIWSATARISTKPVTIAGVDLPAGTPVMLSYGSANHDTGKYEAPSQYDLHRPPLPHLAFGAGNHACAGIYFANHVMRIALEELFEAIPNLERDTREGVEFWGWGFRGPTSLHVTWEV

For `COc1cccc(O)c1O` [3MC, 3-methoxycatechol], the Specific activity in assay [1] turned out to be 3.2 ± 0.2 μmol sec-1 μmol-1 GcoA. The “aromatic substrate disappearance (specific activity)” value (“aromatic substrate disappearance” for short) in assay [2] was 2.6 ± 0.3 μM s-1 μmol F169A-1.

Take `COc1ccccc1O` [guaiacol, 2-methoxyphenol]: in assay [1] (setting [3]), the Km stood at 60 ± 10 µM and the kcat was 6.8 ± 0.02 s⁻¹. In assay [1], this compound came in with a Specific activity of 5.0 ± 0.1 μmol sec-1 μmol-1 GcoA. Moreover, in assay [2], the “aromatic substrate disappearance” value is recorded as 5.6 ± 0.3 μM s-1 μmol F169A-1.

`COc1cccc(OC)c1O` [syringol, 2,6-dimethoxyphenol]: the “demethylation by WT GcoA” value in assay [1] (WT GcoA 0.2 μM, 300 μM NADH, 210 μM O2, pH 7.5, 25 °C) is “unable to demethylate syringol”. The “aromatic substrate disappearance” value in assay [2] stood at 4.1 ± 0.3 μM s-1 μmol F169A-1.
